ChEMBL document CHEMBL1201861, “Genomics of Drug Sensitity in Cancer screening data, Wellcome Trust Sanger Institute”

Legend:
Assay in all cases: cells
SK-MEL-30 = format: functional, cell-based; conditions: Homo sapiens;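 further: growth inhibition of SK-MEL-30 cells, determined with a cell viability assay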
Description: SANGER: Inhibition of human SK-MEL-30 cell growth in a cell viability assay.

MDA-MB-157 = format: functional, cell-based, Homo sapiens; conditions: Homo sapiens, MDA-MB-157
Description: SANGER: Inhibition of human MDA-MB-157 cell growth in a cell viability assay.

HOS = format: functional, cell-based, Homo sapiens; conditions: Homo sapiens, HOS;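 further: growth inhibition of human HOS cells, read out with a cell viability assay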
Description: SANGER: Inhibition of human HOS cell growth in a cell viability assay.

MeWo = format: functional, cell-based, Homo sapiens; conditions: Homo sapiens, MeWo;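 further: growth inhibition of MeWo cells, determined by a cell viability readout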
Description: SANGER: Inhibition of human Mewo cell growth in a cell viability assay.

COR-L105 = format: functional, cell-based, Homo sapiens; conditions: Homo sapiens, COR-L105;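 further: cell growth inhibition determined with a viability assay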
Description: SANGER: Inhibition of human COR-L105 cell growth in a cell viability assay.

A-427 = format: functional, cell-based, Homo sapiens; conditions: Homo sapiens, A-427;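 further: growth inhibition of human A-427 cells, read out by a cell viability assay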
Description: SANGER: Inhibition of human A427 cell growth in a cell viability assay.

SW1088 = format: functional, cell-based, Homo sapiens; conditions: Homo sapiens, SW1088;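 further: growth inhibition of human SW1088 cells, read out by a cell viability assay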
Description: SANGER: Inhibition of human SW1088 cell growth in a cell viability assay.

MZ1-PC = format: functional, cell-based, Homo sapiens; conditions: Homo sapiens, MZ1-PC;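 further: cell viability assay measuring growth inhibition of human MZ1-PC cells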
Description: SANGER: Inhibition of human MZ1-PC cell growth in a cell viability assay.

NCI-H1651 = format: functional, cell-based, Homo sapiens; conditions: Homo sapiens, NCI-H1651;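 further: Read-out is a cell viability assay, with IC50 expressing inhibition of NCI-H1651 cell growth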
Description: SANGER: Inhibition of human NCI-H1651 cell growth in a cell viability assay.

NCI-H1299 = format: functional, cell-based, Homo sapiens; conditions: Homo sapiens, NCI-H1299;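 further: growth inhibition of human NCI-H1299 cells, read out by a cell viability assay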
Description: SANGER: Inhibition of human NCI-H1299 cell growth in a cell viability assay.

NCI-H1793 = format: functional, cell-based, Homo sapiens; conditions: Homo sapiens, NCI-H1793;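 further: cell growth inhibition, read out by a cell viability assay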
Description: SANGER: Inhibition of human NCI-H1793 cell growth in a cell viability assay.

SNU-449 = format: functional, cell-based, Homo sapiens; conditions: Homo sapiens, SNU-449
Description: SANGER: Inhibition of human SNU-449 cell growth in a cell viability assay.

SK-MES-1 = format: functional, cell-based, Homo sapiens; conditions: Homo sapiens, SK-MES-1;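 further: growth inhibition of human SK-MES-1 cells, read out with a cell viability assay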
Description: SANGER: Inhibition of human SK-MES-1 cell growth in a cell viability assay.

MKN-28 = format: functional, cell-based, Homo sapiens; conditions: Homo sapiens, MKN-28;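 further: cell viability assay read-out, IC50 reflects suppression of growth of human MKN-28 cells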
Description: SANGER: Inhibition of human MKN28 cell growth in a cell viability assay.

CHP-212 = format: functional, cell-based, Homo sapiens; conditions: Homo sapiens, CHP-212
Description: SANGER: Inhibition of human CHP-212 cell growth in a cell viability assay.

DJM-1 = format: functional, cell-based, Homo sapiens; conditions: Homo sapiens, DJM-1;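 further: growth inhibition of human DJM-1 cells, read out by a cell viability assay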
Description: SANGER: Inhibition of human DJM-1 cell growth in a cell viability assay.

MEG-01 = format: functional, cell-based; conditions: Homo sapiens;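 further: growth inhibition of MEG-01 cells, read out by a cell viability assay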
Description: SANGER: Inhibition of human MEG-01 cell growth in a cell viability assay.

NCI-H1355 = format: functional, cell-based, Homo sapiens; conditions: Homo sapiens, NCI-H1355;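 further: growth inhibition of human NCI-H1355 cells, read out by a cell viability assay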
Description: SANGER: Inhibition of human NCI-H1355 cell growth in a cell viability assay.

HEL = format: functional, cell-based, Homo sapiens; conditions: Homo sapiens, HEL;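 further: growth inhibition of HEL cells, read out with a cell viability assay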
Description: SANGER: Inhibition of human HEL cell growth in a cell viability assay.

NCI-H2122 = format: functional, cell-based, Homo sapiens; conditions: Homo sapiens, NCI-H2122;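 further: growth inhibition of the cells, read out with a cell viability assay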
Description: SANGER: Inhibition of human NCI-H2122 cell growth in a cell viability assay.

HCC1937 = format: functional, cell-based, Homo sapiens; conditions: Homo sapiens, HCC1937;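 further: growth inhibition measured with a cell viability read-out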
Description: SANGER: Inhibition of human HCC1937 cell growth in a cell viability assay.

KYSE-180 = format: functional, cell-based, Homo sapiens; conditions: Homo sapiens, KYSE-180;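 further: growth inhibition of KYSE-180 cells, read out with a cell viability assay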
Description: SANGER: Inhibition of human KYSE-180 cell growth in a cell viability assay.

MSTO-211H = format: functional, cell-based, Homo sapiens; conditions: Homo sapiens, MSTO-211H
Description: SANGER: Inhibition of human MSTO-211H cell growth in a cell viability assay.

A2058 = format: functional, cell-based; conditions: Homo sapiens;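 further: reduction of A2058 cell growth, read out with a viability assay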
Description: SANGER: Inhibition of human A2058 cell growth in a cell viability assay.

MKN-7 = format: functional, cell-based, Homo sapiens; conditions: Homo sapiens, MKN-7;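 further: growth inhibition of MKN-7 cells, read out with a cell viability assay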
Description: SANGER: Inhibition of human MKN7 cell growth in a cell viability assay.

YAPC = format: functional, cell-based, Homo sapiens; conditions: Homo sapiens, YAPC;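 further: growth inhibition of YAPC cells, measured with a cell viability assay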
Description: SANGER: Inhibition of human YAPC cell growth in a cell viability assay.

DMS-273 = format: functional, cell-based, Homo sapiens; conditions: Homo sapiens, DMS-273
Description: SANGER: Inhibition of human DMS-273 cell growth in a cell viability assay.

Panc1005 = format: functional, cell-based, Homo sapiens; conditions: Homo sapiens, Panc1005;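 further: growth inhibition of human PANC-10-05 cells, measured by a cell viability assay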
Description: SANGER: Inhibition of human PANC-10-05 cell growth in a cell viability assay.

HN = format: functional, cell-based, Homo sapiens; conditions: Homo sapiens, HN
Description: SANGER: Inhibition of human HN cell growth in a cell viability assay.

Hs-578T = format: functional, cell-based, Homo sapiens; conditions: Homo sapiens, Hs-578T
Description: SANGER: Inhibition of human Hs-578-T cell growth in a cell viability assay.

VM-CUB-1 = format: functional, cell-based; conditions: Homo sapiens;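 further: cell viability assay measuring growth inhibition of the human VM-CUB-1 cell line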
Description: SANGER: Inhibition of human VM-CUB-1 cell growth in a cell viability assay.

LS-411N = format: functional, cell-based, Homo sapiens; conditions: Homo sapiens, LS-411N
SF-268 = format: functional, cell-based, Homo sapiens; conditions: Homo sapiens, SF-268;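 further: growth inhibition of SF-268 cells determined with a cell viability assay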
Description: SANGER: Inhibition of human SF268 cell growth in a cell viability assay.

BB65-RCC = format: functional, cell-based, Homo sapiens; conditions: Homo sapiens, BB65-RCC;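 further: growth inhibition of the cell line, measured with a cell viability assay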
Description: SANGER: Inhibition of human BB65-RCC cell growth in a cell viability assay.

647-V = format: functional, cell-based, Homo sapiens; conditions: Homo sapiens, 647-V;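 further: growth inhibition of 647-V cells, read out with a cell viability assay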
Description: SANGER: Inhibition of human 647-V cell growth in a cell viability assay.

RCC10RGB = format: functional, cell-based, Homo sapiens; conditions: Homo sapiens, RCC10RGB;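 further: growth inhibition of human RCC10RGB cells, read out by a cell viability assay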
Description: SANGER: Inhibition of human RCC10RGB cell growth in a cell viability assay.

CCRF-CEM = format: functional, cell-based; conditions: Homo sapiens;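 further: inhibition of CCRF-CEM cell growth, measured by a cell viability assay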
Description: SANGER: Inhibition of human CCRF-CEM cell growth in a cell viability assay.

ES6 = format: functional, cell-based, Homo sapiens; conditions: Homo sapiens, ES6;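 further: growth inhibition of human ES6 cells, read out with a cell viability assay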
Description: SANGER: Inhibition of human ES6 cell growth in a cell viability assay.

HCC70 = format: functional, cell-based, Homo sapiens; conditions: Homo sapiens, HCC70;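 further: cell viability assay measuring how strongly the compound suppresses proliferation of HCC70 cells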
Description: SANGER: Inhibition of human HCC70 cell growth in a cell viability assay.

BFTC-905 = format: functional, cell-based, Homo sapiens; conditions: Homo sapiens, BFTC-905
Description: SANGER: Inhibition of human BFTC-905 cell growth in a cell viability assay.

KP-N-YS = format: functional, cell-based; conditions: Homo sapiens;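 further: cell viability assay measuring inhibition of cell line growth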
Description: SANGER: Inhibition of human KP-N-YS cell growth in a cell viability assay.

P12-Ichikawa = format: functional, cell-based; conditions: Homo sapiens
UACC-257 = format: functional, cell-based, Homo sapiens; conditions: Homo sapiens, UACC-257
Description: SANGER: Inhibition of human UACC-257 cell growth in a cell viability assay.

OMC-1 = format: functional, cell-based, Homo sapiens; conditions: Homo sapiens, OMC-1;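 further: growth inhibition of the OMC-1 cell line, measured by a cell viability assay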
Description: SANGER: Inhibition of human OMC-1 cell growth in a cell viability assay.

LAMA-84 = format: functional, cell-based; conditions: Homo sapiens;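 further: growth inhibition of LAMA-84 cells, read out with a cell viability assay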
Description: SANGER: Inhibition of human LAMA-84 cell growth in a cell viability assay.

Capan-2 = format: functional, cell-based, Homo sapiens; conditions: Homo sapiens, Capan-2;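 further: Capan-2 cell growth inhibition, read out with a viability assay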
Description: SANGER: Inhibition of human Capan-2 cell growth in a cell viability assay.

HMV-2 cell line = format: functional, cell-based, Homo sapiens; conditions: Homo sapiens, HMV-2;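 further: growth inhibition of HMV-II cells, read out with a cell viability assay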
Description: SANGER: Inhibition of human HMV-II cell growth in a cell viability assay.

`COc1cc(F)c(F)c(Nc2ccc(I)cc2F)c1NS(=O)(=O)C1(CC(O)CO)CC1` (stereo not drawn) was tested, and the IC50 (SK-MEL-30) was greater than 5 µM, the IC50 (MDA-MB-157) was greater than 5 µM and the IC50 (HOS) was greater than 5 µM. For the same compound, the IC50 (MeWo) was 0.753 µM, the IC50 (COR-L105) was greater than 5 µM and the IC50 (A-427) was 4.46 µM. It also gave an IC50 (SW1088) greater than 5 µM, an IC50 (MZ1-PC) of 1.34 µM and an IC50 (NCI-H1651) greater than 5 µM. For the same compound, the IC50 (NCI-H1299) was greater than 5 µM, the IC50 (NCI-H1793) was greater than 5 µM and the IC50 (SNU-449) was 3.85 µM. The IC50 (SK-MES-1) was 1.35 µM, the IC50 (MKN-28) was greater than 5 µM and the IC50 (CHP-212) was 0.00492 µM. It also gave an IC50 (DJM-1) greater than 5 µM, an IC50 (MEG-01) of 0.786 µM and an IC50 (NCI-H1355) greater than 5 µM. For the same compound, the IC50 (HEL) was greater than 5 µM, the IC50 (NCI-H2122) was 2.17 µM and the IC50 (HCC1937) was greater than 5 µM. The IC50 (KYSE-180) was greater than 5 µM, the IC50 (MSTO-211H) was 3.08 µM and the IC50 (A2058) was 3.8 µM. The IC50 (MKN-7) was greater than 5 µM, the IC50 (YAPC) was greater than 5 µM and the IC50 (DMS-273) was greater than 5 µM. It also gave an IC50 (Panc1005) greater than 5 µM, an IC50 (HN) of 1.12 µM and an IC50 (Hs-578T) of 1.76 µM. It also gave an IC50 (VM-CUB-1) of 3.65 µM, an IC50 (LS-411N) of 0.403 µM and an IC50 (SF-268) greater than 5 µM. It also gave an IC50 (BB65-RCC) of 3.66 µM, an IC50 (647-V) greater than 5 µM and an IC50 (RCC10RGB) greater than 5 µM. The IC50 (CCRF-CEM) was greater than 5 µM, the IC50 (ES6) was greater than 5 µM and the IC50 (HCC70) was greater than 5 µM. The IC50 (BFTC-905) was 0.719 µM, the IC50 (KP-N-YS) was greater than 5 µM and the IC50 (P12-Ichikawa) was 1.78 µM. It also gave an IC50 (UACC-257) of 0.0667 µM, an IC50 (OMC-1) greater than 5 µM and an IC50 (LAMA-84) of 0.318 µM. It also gave an IC50 (Capan-2) greater than 5 µM.

`O=C1N=C(NCc2cccs2)S/C1=C\c1ccc2ncccc2c1` gave an IC50 (SK-MEL-30) greater than 5 µM, an IC50 (MDA-MB-157) greater than 5 µM and an IC50 (HOS) greater than 5 µM. The IC50 (MeWo) was greater than 5 µM, the IC50 (COR-L105) was greater than 5 µM and the IC50 (A-427) was greater than 5 µM. For the same compound, the IC50 (SW1088) was greater than 5 µM, the IC50 (MZ1-PC) was greater than 5 µM and the IC50 (NCI-H1651) was greater than 5 µM. For the same compound, the IC50 (HMV-2 cell line) was greater than 5 µM, the IC50 (NCI-H1299) was greater than 5 µM and the IC50 (NCI-H1793) was greater than 5 µM. For the same compound, the IC50 (SNU-449) was greater than 5 µM, the IC50 (SK-MES-1) was greater than 5 µM and the IC50 (MKN-28) was greater than 5 µM. The IC50 (CHP-212) was greater than 5 µM, the IC50 (DJM-1) was greater than 5 µM and the IC50 (MEG-01) was greater than 5 µM. It also gave an IC50 (NCI-H1355) greater than 5 µM, an IC50 (HEL) greater than 5 µM and an IC50 (NCI-H2122) greater than 5 µM. It also gave an IC50 (HCC1937) greater than 5 µM, an IC50 (KYSE-180) greater than 5 µM and an IC50 (MSTO-211H) greater than 5 µM. For the same compound, the IC50 (A2058) was greater than 5 µM, the IC50 (MKN-7) was greater than 5 µM and the IC50 (YAPC) was greater than 5 µM. The IC50 (DMS-273) was greater than 5 µM, the IC50 (Panc1005) was greater than 5 µM and the IC50 (HN) was greater than 5 µM. The IC50 (Hs-578T) was 2.28 µM, the IC50 (VM-CUB-1) was greater than 5 µM and the IC50 (LS-411N) was greater than 5 µM. For the same compound, the IC50 (SF-268) was greater than 5 µM, the IC50 (BB65-RCC) was greater than 5 µM and the IC50 (647-V) was greater than 5 µM. The IC50 (RCC10RGB) was greater than 5 µM, the IC50 (CCRF-CEM) was greater than 5 µM and the IC50 (ES6) was greater than 5 µM. The IC50 (HCC70) was greater than 5 µM, the IC50 (BFTC-905) was greater than 5 µM and the IC50 (KP-N-YS) was greater than 5 µM. For the same compound, the IC50 (P12-Ichikawa) was greater than 5 µM, the IC50 (UACC-257) was greater than 5 µM and the IC50 (OMC-1) was greater than 5 µM. The IC50 (LAMA-84) was greater than 5 µM and the IC50 (Capan-2) was greater than 5 µM.
